In paper PMC11129196 (Journal of Medicinal Chemistry, 2024):
Converted amounts (≈) assume the structure as drawn. “Also recorded” adds a separate entry of the source. One block for each compound: values may come before it.

Columns and labels:
reconstituted sarcomeres = assay: sarcomere component swap experiment; format: biochemical, bovine, rabbit; conditions: four myosin S1/thin filament combinations; 1 and 2 at 40 μM
slow skeletal myofibrils = slow skeletal myofibrils (Bos taurus, UniProt P63315); assay: slow skeletal myofibril ATPase assay; format: biochemical, bovine
fast skeletal myofibrils = fast skeletal myofibrils (Oryctolagus cuniculus, UniProt P02586+P02643); assay: fast skeletal myofibril ATPase assay; format: biochemical, rabbit
Sequence of fast skeletal myofibrils (P02586 whole entry): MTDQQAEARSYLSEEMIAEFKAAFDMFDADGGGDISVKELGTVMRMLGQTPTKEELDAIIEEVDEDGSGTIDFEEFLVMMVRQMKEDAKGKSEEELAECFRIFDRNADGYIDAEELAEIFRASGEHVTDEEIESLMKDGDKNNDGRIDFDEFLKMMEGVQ
Sequence of fast skeletal myofibrils (P02643 whole entry): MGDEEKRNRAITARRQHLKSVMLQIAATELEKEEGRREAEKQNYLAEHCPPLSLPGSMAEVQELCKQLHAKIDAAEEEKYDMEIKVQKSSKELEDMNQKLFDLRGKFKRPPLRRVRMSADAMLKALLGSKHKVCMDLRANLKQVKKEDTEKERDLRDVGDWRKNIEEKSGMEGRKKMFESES
Sequence of fast skeletal myofibrils (P02641 whole entry partner): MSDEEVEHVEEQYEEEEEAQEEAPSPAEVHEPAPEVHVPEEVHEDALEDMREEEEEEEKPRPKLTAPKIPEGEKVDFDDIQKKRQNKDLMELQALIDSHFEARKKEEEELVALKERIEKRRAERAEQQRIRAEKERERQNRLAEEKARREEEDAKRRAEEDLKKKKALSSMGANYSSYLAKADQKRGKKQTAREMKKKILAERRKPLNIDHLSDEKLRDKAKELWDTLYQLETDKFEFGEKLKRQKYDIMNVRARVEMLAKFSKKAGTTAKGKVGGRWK

smooth muscle myosin = smooth muscle myosin (Gallus gallus, UniProt P10587); assay: smooth muscle myosin ATPase assay; format: biochemical, chicken
Sequence of smooth muscle myosin (P10587 whole entry): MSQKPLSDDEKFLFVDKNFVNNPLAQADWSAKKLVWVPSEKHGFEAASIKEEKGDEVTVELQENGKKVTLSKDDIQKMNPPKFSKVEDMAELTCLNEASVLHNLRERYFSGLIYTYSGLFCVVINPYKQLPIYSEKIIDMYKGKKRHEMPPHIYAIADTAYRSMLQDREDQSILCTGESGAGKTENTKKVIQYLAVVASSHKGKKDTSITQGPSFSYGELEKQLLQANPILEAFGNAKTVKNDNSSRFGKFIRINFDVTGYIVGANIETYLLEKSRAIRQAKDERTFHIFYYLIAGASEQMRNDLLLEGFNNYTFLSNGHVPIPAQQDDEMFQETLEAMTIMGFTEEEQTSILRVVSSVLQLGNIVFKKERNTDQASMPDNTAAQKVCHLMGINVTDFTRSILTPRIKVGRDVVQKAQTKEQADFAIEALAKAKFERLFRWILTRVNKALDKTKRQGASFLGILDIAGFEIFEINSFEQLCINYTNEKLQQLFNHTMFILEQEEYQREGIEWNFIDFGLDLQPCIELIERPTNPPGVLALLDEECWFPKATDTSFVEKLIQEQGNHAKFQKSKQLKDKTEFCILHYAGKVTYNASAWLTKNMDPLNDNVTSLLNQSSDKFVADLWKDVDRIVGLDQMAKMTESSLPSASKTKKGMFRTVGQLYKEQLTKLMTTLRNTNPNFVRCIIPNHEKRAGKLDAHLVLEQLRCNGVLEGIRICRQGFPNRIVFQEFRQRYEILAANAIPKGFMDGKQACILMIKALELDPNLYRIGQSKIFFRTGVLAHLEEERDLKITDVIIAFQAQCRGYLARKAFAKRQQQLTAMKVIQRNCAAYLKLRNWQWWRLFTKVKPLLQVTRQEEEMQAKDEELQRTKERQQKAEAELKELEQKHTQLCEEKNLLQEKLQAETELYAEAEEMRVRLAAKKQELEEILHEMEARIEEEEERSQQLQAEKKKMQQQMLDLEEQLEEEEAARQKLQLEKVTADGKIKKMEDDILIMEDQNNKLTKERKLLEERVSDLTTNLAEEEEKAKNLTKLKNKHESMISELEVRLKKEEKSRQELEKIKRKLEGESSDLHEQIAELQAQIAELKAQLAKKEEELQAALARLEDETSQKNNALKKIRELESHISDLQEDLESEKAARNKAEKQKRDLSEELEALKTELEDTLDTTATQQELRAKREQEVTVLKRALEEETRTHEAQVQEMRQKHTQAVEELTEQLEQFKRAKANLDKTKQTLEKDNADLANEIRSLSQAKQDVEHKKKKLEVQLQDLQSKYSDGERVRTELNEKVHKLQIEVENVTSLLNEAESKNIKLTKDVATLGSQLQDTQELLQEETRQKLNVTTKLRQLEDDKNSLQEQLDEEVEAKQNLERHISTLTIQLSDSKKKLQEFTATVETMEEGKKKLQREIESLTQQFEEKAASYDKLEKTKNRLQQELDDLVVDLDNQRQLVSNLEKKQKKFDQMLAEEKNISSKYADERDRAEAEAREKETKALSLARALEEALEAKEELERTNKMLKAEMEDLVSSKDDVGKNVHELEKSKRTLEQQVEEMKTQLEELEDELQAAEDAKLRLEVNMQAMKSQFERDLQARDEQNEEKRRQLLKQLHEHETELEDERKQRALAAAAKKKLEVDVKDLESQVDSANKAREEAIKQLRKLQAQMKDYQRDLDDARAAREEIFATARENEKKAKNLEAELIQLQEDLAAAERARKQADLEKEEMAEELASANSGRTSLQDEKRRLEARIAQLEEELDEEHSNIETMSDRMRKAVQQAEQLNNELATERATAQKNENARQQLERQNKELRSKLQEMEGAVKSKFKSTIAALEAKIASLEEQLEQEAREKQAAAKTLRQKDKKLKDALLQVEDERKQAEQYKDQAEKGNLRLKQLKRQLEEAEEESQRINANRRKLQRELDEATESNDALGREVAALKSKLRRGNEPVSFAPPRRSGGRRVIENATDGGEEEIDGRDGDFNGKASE
Sequence of smooth muscle myosin (P02607 whole entry partner): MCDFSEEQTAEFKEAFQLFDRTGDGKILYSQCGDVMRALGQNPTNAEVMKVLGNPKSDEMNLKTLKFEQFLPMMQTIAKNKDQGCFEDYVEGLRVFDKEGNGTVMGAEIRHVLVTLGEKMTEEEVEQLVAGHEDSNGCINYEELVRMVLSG
Sequence of smooth muscle myosin (P02612 whole entry partner): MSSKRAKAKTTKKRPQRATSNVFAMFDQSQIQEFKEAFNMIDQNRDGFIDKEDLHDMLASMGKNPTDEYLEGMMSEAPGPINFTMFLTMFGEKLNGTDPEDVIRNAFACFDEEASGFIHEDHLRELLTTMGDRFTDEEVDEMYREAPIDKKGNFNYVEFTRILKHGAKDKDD

[1] = solubility in the PDE-3 buffer solution; format: physicochemical
PDE-3 = conditions: cited from earlier work
[2] = test system: adult rat ventricular myocytes; assay: rat cardiomyocyte contractility assay; format: cell-based; conditions: 10 μM, 1 Hz, 37 °C, vs untreated cells
[3] = test system: adult rat ventricular myocytes; assay: cardiomyocyte calcium transient experiments; format: cell-based; conditions: 10 μM, Fura dye
solubility assessment = format: physicochemical; conditions: monopotassium phosphate JP2 buffer, pH 6.8
[4] = rat pharmacokinetic assessment, IV; format: in vivo; conditions: dosed IV in rats
phosphodiesterase 3a = phosphodiesterase 3a (Homo sapiens, UniProt Q14432); assay: PDE-3 inhibition assay; format: biochemical
Sequence of phosphodiesterase 3a (Q14432 whole entry): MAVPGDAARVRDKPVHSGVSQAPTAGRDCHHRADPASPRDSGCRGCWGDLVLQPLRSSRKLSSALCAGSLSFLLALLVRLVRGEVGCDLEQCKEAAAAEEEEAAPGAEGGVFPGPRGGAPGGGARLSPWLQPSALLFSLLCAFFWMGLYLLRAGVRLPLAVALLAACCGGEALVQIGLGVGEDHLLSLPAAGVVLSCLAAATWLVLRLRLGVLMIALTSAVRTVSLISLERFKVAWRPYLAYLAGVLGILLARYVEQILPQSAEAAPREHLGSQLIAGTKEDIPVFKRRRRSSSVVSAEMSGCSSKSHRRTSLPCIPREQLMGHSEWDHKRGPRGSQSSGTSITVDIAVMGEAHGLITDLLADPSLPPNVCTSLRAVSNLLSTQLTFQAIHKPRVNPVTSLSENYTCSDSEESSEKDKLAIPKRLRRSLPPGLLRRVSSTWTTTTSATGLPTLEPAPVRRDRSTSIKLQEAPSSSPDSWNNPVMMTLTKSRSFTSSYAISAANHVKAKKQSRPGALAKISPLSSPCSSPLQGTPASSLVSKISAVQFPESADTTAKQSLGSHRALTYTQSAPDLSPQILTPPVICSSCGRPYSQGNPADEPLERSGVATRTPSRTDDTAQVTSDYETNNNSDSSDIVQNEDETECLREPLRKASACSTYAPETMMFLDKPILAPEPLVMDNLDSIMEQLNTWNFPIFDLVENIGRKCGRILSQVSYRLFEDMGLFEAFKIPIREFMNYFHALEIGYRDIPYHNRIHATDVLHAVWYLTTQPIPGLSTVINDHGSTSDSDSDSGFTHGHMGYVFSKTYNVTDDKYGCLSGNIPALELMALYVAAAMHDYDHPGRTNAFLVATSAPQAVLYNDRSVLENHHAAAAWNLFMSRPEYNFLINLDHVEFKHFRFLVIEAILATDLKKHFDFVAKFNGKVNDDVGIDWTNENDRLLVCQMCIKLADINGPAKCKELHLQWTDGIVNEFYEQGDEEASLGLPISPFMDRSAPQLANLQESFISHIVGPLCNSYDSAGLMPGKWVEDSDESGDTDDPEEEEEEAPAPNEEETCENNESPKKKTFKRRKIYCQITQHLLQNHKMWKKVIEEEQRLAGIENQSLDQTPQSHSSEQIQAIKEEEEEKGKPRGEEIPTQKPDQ

solubility [1]: 1.2 µM (≈ 0.489 µg/mL)
SMILES: Cn1c(=O)[nH]c(=O)c2cc(S(=O)(=O)Nc3ccc(-c4ccccc4)cc3)ccc21 [compound 5]

solubility at 12 h (solubility assessment): 6.7 µM (≈ 3.06 µg/mL) | clearance relative to hepatic blood flow [4]: < 25 % of hepatic blood flow (Qh)
SMILES: CNc1cc2nc(C)[nH]c(=O)c2cc1S(=O)(=O)Nc1ccc(N2C[C@H](C)C[C@@H](C)C2)nc1 [compound 17, N-(6-((3R,5R)-3,5-Dimethylpiperidin-1-yl)pyridin-3-yl)-2-methyl-7-(methylamino)-4-oxo-3,4-dihydroquinazoline-6-sulfonamide]

IC50 (phosphodiesterase 3a): 7 µM
SMILES: C[C@@H]1C[C@@H](C)CN(c2ccc(NS(=O)(=O)c3ccc4c(c3)c(=O)[nH]c(=O)n4C)cn2)C1 [compound 13, N-(6-((3R,5R)-3,5-Dimethylpiperidin-1-yl)pyridin-3-yl)-1-methyl-2,4-dioxo-1,2,3,4-tetrahydroquinazoline-6-sulfonamide]

The next lines start with the compound.

SMILES: O=c1[nH]c2ccc(S(=O)(=O)Nc3ccc(-c4ccccc4)cc3)cc2[nH]1 [compound 1]
activation of reconstituted sarcomeres in words (reconstituted sarcomeres): Only the reconstituted sarcomeres that contain the cardiac thin filament showed activation

SMILES: O=c1[nH]c(=O)c2cc(S(=O)(=O)Nc3ccc(-c4ccccc4)cc3)ccc2[nH]1 [compound 3]
slow skeletal myofibril AC40 (slow skeletal myofibrils): <0.1 µM | fast skeletal myofibril activity in words (fast skeletal myofibrils): did not activate | smooth muscle myosin activity in words (smooth muscle myosin): did not activate

SMILES: C[C@@H]1CC(=O)NN=C1c1ccc(NN=C(C#N)C#N)cc1 [Levosimendan]
PDE-3 inhibition in words (PDE-3): single digit nanomolar PDE-3 inhibition

SMILES: O=c1[nH]c(=O)c2cc(S(=O)(=O)Nc3ccc(N4CCCCCC4)cc3)ccc2[nH]1 [compound 2]
fast skeletal myofibril activity in words (fast skeletal myofibrils): inactive; also recorded: did not activate | smooth muscle myosin activity in words (smooth muscle myosin): inactive; also recorded: did not activate | myocyte fractional shortening in words [2]: significantly increased myocyte fractional shortening | intracellular calcium concentrations in words [3]: without changing intracellular calcium concentrations | activation of reconstituted sarcomeres in words (reconstituted sarcomeres): Only the reconstituted sarcomeres that contain the cardiac thin filament showed activation
